Data from US10577322B2, “5-methoxytryptophan and its derivatives and uses thereof” (National Health Research Institutes, priority 2015, dated 2020).

How the values were obtained:
COX-2 promoter = experiment: COX-2 promoter-luciferase assay in RAW264.7 cells; type: cell-based, mouse; conditions: for LPS-induced COX-2 promoter activity (luciferase): LPS 8 h
Procedure: RAW264.7 macrophages were cotransfected with COX-2 promoter-luciferase, IL-6 promoter-luciferase constructs as previously described (Lee, G. L., et al.) or p5xNF-κB-luciferase (Stratagene) and pcDNA3.1-β-galactosidase plasmids using FuGENE 6 (Roche). After overnight transfection, the cells were incubated with or without LPS in the presence or absence of 5-MTP for 8 h. After treatment, cells were lysed, and luciferase activity was measured using an assay kit (Promega). β-galactosidase activity was used to normalize the data.
After pretreating mouse macrophage RAW264.7 cells with different concentrations of 5-MTP for 30 min, cells were stimulated with LPS for 8 h. Cell lysates were immunoblotted with antibodies for COX-2 or β-actin. In addition, RAW264.7 cells were transfected with COX-2 promoter-luciferase plasmid. After 24 h transfection, the cells were incubated with LPS for 8 h. Luciferase activity was measured. The experiments were repeated 3 times with similar results. The results shown in FIGS. 3A-3B confirmed that 5-MTP blocked LPS-induced COX-2 protein expression and promoter activity in a concentration-dependent manner in RAW264.7 cells.
Herein, after pretreating RAW264.7 cells with different concentrations of 5-MTP, 5-MTPE, COX-2 inhibitors (NSC398 or SC560) and NF-κB inhibitor JSH-23 for 30 min, cells were stimulated with LPS. In addition, RAW264.7 cells were also transfected with COX-2 promoter-luciferase plasmid. After 24 h transfection, the cells were incubated with LPS for 8 h. Luciferase activity as measured.

[1] = tested on: proinflammatory cytokines; experiment: LPS-induced proinflammatory cytokines in peritoneal macrophages (ELISA); type: cell-based, mouse; conditions: LPS 24 h
Procedure: (§1) For peritoneal macrophage isolation, C57BL/6J mice were injected intraperitoneally with 2 ml of 4% thioglycollate. Four days after injection, the peritoneal cavity was washed with 5 ml of ice-cold RPMI1640 medium, and cells from the peritoneal exudates were collected by centrifugation, and suspended in RPMI1640 medium, then seeded on 15-cm dishes and allowed to adhere for 4 h. Floating cells were washed out, and adherent cells were used as peritoneal macrophages in the experiments. The cells were incubated with or without LPS (100 ng/ml) for the indicated time before each experiment, as in the protocol for the RAW264.7 cells.
Cytokine levels in the culture supernatants and serum were determined in microtiter plates (96-well) by a specific sandwich ELISA (Biosource) as previously described (Wu, J. Y. & Kuo, C. C. Pivotal role of ADP-ribosylation factor 6 in Toll-like receptor 9-mediated immune signaling. J Biol Chem 287, 4323-4334 (2012)) (Lee, G. L., et al. TLR 2 induces vascular smooth muscle cell migration through cAMP response element-binding protein-mediated interleukin-6 production. Arterioscler Thromb Vasc Biol 32, 2751-2760 (2012); hereinafter, Lee, G. L., et al.).
Furthermore, peritoneal macrophages were stimulated with LPS with or without 5-MTP. After 24 h, proinflammatory cytokines were measured by ELISA.

[2] = tested on: vascular smooth muscle cells; experiment: Calcifying medium-induced calcification in vascular smooth muscle cells; type: cell-based
Source text: Vascular smooth muscle cell (VSMC) calcification is the major phenomenon to induce atherosclerotic vascular calcification in cardiovascular disease (CVD). We next investigated the effect of 5-MTP derivatives on VSMC calcification.

T47D breast cancer cells = experiment: Transwell cell migration assay, T47D; type: cell-based; conditions: 30 min pretreatment, PMA 4 h or 24 h
Procedure: Briefly, cells (10^4/well) were seeded on the upper chamber (6.5-mm insert, 8-μm polycarbonate membrane; Corning Inc.), which was placed in each well of a 24-well plate. The lower chamber was filled with 700 μL DMEM supplemented with 10% FBS. For assessment of in vitro invasion, cells were seeded onto the upper chamber insert coated with Matrigel (BD Biosciences) under the same conditions as the transwell migration assays. At the indicated time, nonmigrated cells that remained at the top surface of the insert were removed with a cotton swab. Cells that migrated to the lower membrane surface and cells that invaded through the matrigel gel to the underside of the membrane were fixed, stained with 0.1% crystal violet for 20 min, and counted under light microscopy. All of the assays were done in triplicate with excellent reproducibility.
Lung cancer A549 and breast cancers BT474 and T47D cells were pretreated with different concentrations of 5-MTP or 5-MTPE for 30 min, then stimulated with PMA for 4 h or 24 h. Cell migration was measured by the transwell migration assay.

p300 HAT = p300 HAT activity in lung tissues of mice; type: in vivo; conditions: 8-24 h after LPS, 5-MTP 23.4 mg/kg
Procedure: In addition, p300 HAT activity in lung tissues of mice (n=6 mice/group) at 8-24 h after LPS infusion with or without 5-MTP(23.4 mg/kg) was determined by an assay kit.

COX-2 [3] = experiment: PMA-induced COX-2 expression in A549 cells (immunoblot); type: cell-based; conditions: for PMA-induced COX-2 protein expression: 30 min pretreatment, PMA 8 h
Procedure: Cellular protein were resolved by 5% to 20% SDS-PAGE and transferred to nitrocellulose membranes and blotted with specific antibodies as previously described (Lee, G. L., et al.).
After pretreating A549 cells with different concentrations of 5-MTP, 5-MTPE and NACT-5-MTP for 30 min, cells were stimulated with PMA for 8 h. Cell lysates were immunoblotted with antibodies for COX-2 or β-actin.

COX-2 [4] = experiment: LPS-induced COX-2 expression in peritoneal macrophages (western blot); type: cell-based; conditions: primary mouse peritoneal macrophages, LPS 8 h
Procedure: as §1
Furthermore, peritoneal macrophages were stimulated with LPS with or without 5-MTP. After 8 h, COX-2 protein expression was determined by western blot. The experiments were repeated 3 times with similar results.

Compound	LPS-induced COX-2 promoter activity (luciferase) (COX-2 promoter)	IL-1β production [1]	IL-6 production [1]	TNF-α production [1]	calcifying medium-induced calcification [2]	PMA-induced T47D cell migration (T47D breast cancer cells)	p300 HAT activity in lung tissues (p300 HAT)	PMA-induced COX-2 protein expression (COX-2 [3])	LPS-induced COX-2 expression (COX-2 [4])	COX-2 suppressive activity compared with JSH-23 (COX-2 promoter; LPS)	COX-2 suppressive activity compared with 5-MTP (COX-2 [3]; PMA)
COc1ccc2[nH]cc(C[C@H](N)C(=O)O)c2c1 [5-MTP, 5-methoxytryptophan]	dose-dependently blocked	inhibited	inhibited	inhibited	reduced	abrogated	suppressed by 5-MTP	suppress	inhibited	–	–
COC(=O)C(N)Cc1c[nH]c2ccc(OC)cc12 (stereo not drawn) [5-MTPE, ester-5-MTP]	dose-dependently blocked	–	–	–	reduced	abrogated	–	dose-dependently blocked	–	potent than that of NF-κB inhibitor JSH-23	potent than that of 5-MTP
